Publication PMC7004565, “Nucleotide inhibition of the pancreatic ATP-sensitive K^+ channel explored with patch-clamp fluorometry” (eLife, 2020)
Values joined by “and” are separate entries in the source; they are usually repeats but may differ in a detail not shown here. Identical values can stand only once. Like-named read-outs stand apart in the source and are kept apart here.

Experiments:
Format in all cases: biochemical
Kir6.2*-GFP + SUR-K205A = molecular target: T1, Kir6.2*-GFP + SUR-K205A (Homo sapiens, UniProt Q14654); assay: Bayesian MWC-type model fits to combined patch-clamp fluorometry data; conditions: for Kd: read-out: KA (intrinsic binding affinity to the closed state) (converted)
T1 construct: ANAP labelling is specific and only full-length Kir6.2 is expressed at the cell membrane; expressed in transfected cells; host or cells: HEK-293T
Description: (§1) Our simultaneous binding and current measurements were well fit with a Monod-Wyman-Changeux (MWC)-type model (Figure 2D,E; [Monod et al., 1965]) which has been previously proposed to explain KATP channel inhibition ([Enkvetchakul and Nichols, 2003]; [Craig et al., 2008]; [Vedovato et al., 2015]). In our MWC-type model, each ligand binding event ( KA ) is independent and each bound ligand favours the closed state by the same factor ( D ). Simultaneous measurement of binding (fluorescence) and gating (current) allowed us to obtain well constrained fits to our model. To obtain free parameter ( L , KA , D ) estimates and verify that each parameter was well and uniquely determined, we employed a Bayesian Markov chain Monte Carlo (MCMC) method previously employed by [Hines et al. (2014)]. Using this approach, we constructed posterior probability distributions for the free parameters of our MWC-type model (Figure 2F, Table 3). […] Our estimate of L was quite low and broadly distributed. We repeated our fits with L fixed to a value consistent with previous single channel measurements (0.8, Popen=0.45; [John et al., 1998]; [Enkvetchakul et al., 2000]; [Ribalet et al., 2006]). This had only a very small effect on our estimates of D and KA (Figure 2—figure supplement 1). The broad distribution of L in our fit may represent current rundown which occurs during our patch-clamp recordings and is expected to affect the open-closed equilibrium.
(§2) In addition to the full MWC-type model we considered alternate models (Figure 2—figure supplement 2). These included a model in which only the first binding event influences the open-closed equilibrium of the channel (single-binding model; Figure 2—figure supplement 2B, Table 3), and an MWC-style model with an additional parameter C to allow for direct negative cooperativity between binding sites (negative cooperativity model; Figure 2—figure supplement 2C, Table 3). The single-binding model yielded very similar parameter estimates to our full MWC-type model (Figure 2—figure supplement 2D, Table 3). This is a consequence of D being so low that even in the MWC-type model most channels are closed when only a single nucleotide is bound. The cooperative model improved our fits, but not enough to justify the inclusion of an additional free parameter (see Discussion).
(§3) The MWC-type models considered (Figure 2 and Figure 2—figure supplement 2) were formulated as follows:(3) F/Fmax=KA[TNPATP](1+KA[TNPATP])^3+LDKA[TNPATP](1+DKA[TNPATP])^3/(1+KA[TNPATP])^4+L(1+DKA[TNPATP])^4 (4) open channels/total channels=L(1+DKA[TNPATP])^4/(1+KA[TNPATP])^4+L(1+DKA[TNPATP])^4
(§4) The first was similar to the MWC-type model, except that the channels close after one molecule of TNP-ATP binding with subsequent binding events having no effect.(7) F/Fmax=LDKA[TNPATP](1+3KA[TNPATP]+3KA2[TNPATP]^2+KA3[TNPATP]^3)+KA[TNPATP](1+KA[TNPATP])^3/L(1+4DKA[TNPATP]+6DKA2[TNPATP]^2+4DKA3[TNPATP]^3+DKA4[TNPATP]^4)+(1+KA[TNPATP])^4 (8) I/Imax=L(1+4DKA[TNPATP]+6DKA2[TNPATP]^2+4DKA3[TNPATP]^3+DKA4[TNPATP]^4)/L(1+4DKA[TNPATP]+6DKA2[TNPATP]^2+4DKA3[TNPATP]^3+DKA4[TNPATP]^4)+(1+KA[TNPATP])^4⋅1+L/L
(§5) The second alternate model was the same as the full MWC model, but with an additional term C describing binding cooperativity between Kir6.2 subunits.(9) F/Fmax=LDKA[TNPATP](1+3CDKA[TNPATP]+3C^2D^2KA2[TNPATP]^2+C^3D^3KA3[TNPATP]^3)+KA[TNPATP](1+3CKA[TNPATP])+3C^2KA2[TNPATP]^2+C^3KA3[TNPATP]^3)/L(1+4DKA[TNPATP]+6CD^2KA2[TNPATP]^2+4C^2D^3KA3[TNPATP]^3+C^3D^4KA4[TNPATP]^4)+1+4KA[TNPATP]+6CKA2[TNPATP]^2+4C^2KA3[TNPATP]^3+C^3KA4[TNPATP]^4 (10) I/Imax=L(1+4DKA[TNPATP]+6CD^2KA2[TNPATP]^2+4C^2D^3KA3[TNPATP]^3+C^3D^4KA4[TNPATP]^4)/L(1+4DKA[TNPATP]+6CD^2KA2[TNPATP]^2+4C^2D^3KA3[TNPATP]^3+C^3D^4KA4[TNPATP]^4)+1+4KA[TNPATP]+6C^2KA2[TNPATP]^2+4C^2KA3[TNPATP]^3+C^3KA4[TNPATP]^4⋅1+L/L […]

Kir6.2*-GFP + SUR-K205E = molecular target: T2, Kir6.2*-GFP + SUR-K205E (Homo sapiens, UniProt Q14654); assay: as above; conditions: for Kd: read-out: KA (intrinsic binding affinity to the closed state) (converted)
T2 construct: ANAP labelling is specific and only full-length Kir6.2 is expressed at the cell membrane; expressed in transfected cells; host or cells: HEK-293T
Description: as §1, §2, §3, §4, §5

Kir6.2-GFP + SUR1 = Kir6.2-GFP + SUR1 (Homo sapiens, UniProt Q14654); assay: Current inhibition in excised inside-out patches; set-up: ANAP labelling is specific and only full-length Kir6.2 is expressed at the cell membrane; expressed in transfected cells; host or cells: HEK-293T; conditions: Mg2+-free, Hill fit
Description: Currents were measured from patches from cells expressing KATP that were excised in the absence of Mg^2+. Under such conditions, nucleotides can bind to both sites on SUR1, but no activation occurs, allowing inhibitory currents to be measured in isolation ([Gribble et al., 1998]; [Ueda et al., 1999]; [Puljung et al., 2019]).

[1] = Full MWC model, median estimate
[2] = Single-site (single-binding) model

Chain of Kir6.2-GFP + SUR1 (Q14654 whole entry): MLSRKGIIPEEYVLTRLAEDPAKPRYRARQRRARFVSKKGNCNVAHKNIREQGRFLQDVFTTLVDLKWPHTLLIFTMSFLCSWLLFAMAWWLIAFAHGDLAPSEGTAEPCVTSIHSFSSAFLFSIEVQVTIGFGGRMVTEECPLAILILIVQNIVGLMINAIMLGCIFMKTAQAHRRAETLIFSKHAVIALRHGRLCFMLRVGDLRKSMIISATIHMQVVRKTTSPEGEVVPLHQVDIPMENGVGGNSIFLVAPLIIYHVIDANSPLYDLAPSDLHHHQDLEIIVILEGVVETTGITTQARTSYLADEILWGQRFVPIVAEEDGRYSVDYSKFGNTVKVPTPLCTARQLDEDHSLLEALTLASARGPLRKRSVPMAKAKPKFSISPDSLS
Chain of Kir6.2-GFP + SUR1 (Q09428 whole entry partner): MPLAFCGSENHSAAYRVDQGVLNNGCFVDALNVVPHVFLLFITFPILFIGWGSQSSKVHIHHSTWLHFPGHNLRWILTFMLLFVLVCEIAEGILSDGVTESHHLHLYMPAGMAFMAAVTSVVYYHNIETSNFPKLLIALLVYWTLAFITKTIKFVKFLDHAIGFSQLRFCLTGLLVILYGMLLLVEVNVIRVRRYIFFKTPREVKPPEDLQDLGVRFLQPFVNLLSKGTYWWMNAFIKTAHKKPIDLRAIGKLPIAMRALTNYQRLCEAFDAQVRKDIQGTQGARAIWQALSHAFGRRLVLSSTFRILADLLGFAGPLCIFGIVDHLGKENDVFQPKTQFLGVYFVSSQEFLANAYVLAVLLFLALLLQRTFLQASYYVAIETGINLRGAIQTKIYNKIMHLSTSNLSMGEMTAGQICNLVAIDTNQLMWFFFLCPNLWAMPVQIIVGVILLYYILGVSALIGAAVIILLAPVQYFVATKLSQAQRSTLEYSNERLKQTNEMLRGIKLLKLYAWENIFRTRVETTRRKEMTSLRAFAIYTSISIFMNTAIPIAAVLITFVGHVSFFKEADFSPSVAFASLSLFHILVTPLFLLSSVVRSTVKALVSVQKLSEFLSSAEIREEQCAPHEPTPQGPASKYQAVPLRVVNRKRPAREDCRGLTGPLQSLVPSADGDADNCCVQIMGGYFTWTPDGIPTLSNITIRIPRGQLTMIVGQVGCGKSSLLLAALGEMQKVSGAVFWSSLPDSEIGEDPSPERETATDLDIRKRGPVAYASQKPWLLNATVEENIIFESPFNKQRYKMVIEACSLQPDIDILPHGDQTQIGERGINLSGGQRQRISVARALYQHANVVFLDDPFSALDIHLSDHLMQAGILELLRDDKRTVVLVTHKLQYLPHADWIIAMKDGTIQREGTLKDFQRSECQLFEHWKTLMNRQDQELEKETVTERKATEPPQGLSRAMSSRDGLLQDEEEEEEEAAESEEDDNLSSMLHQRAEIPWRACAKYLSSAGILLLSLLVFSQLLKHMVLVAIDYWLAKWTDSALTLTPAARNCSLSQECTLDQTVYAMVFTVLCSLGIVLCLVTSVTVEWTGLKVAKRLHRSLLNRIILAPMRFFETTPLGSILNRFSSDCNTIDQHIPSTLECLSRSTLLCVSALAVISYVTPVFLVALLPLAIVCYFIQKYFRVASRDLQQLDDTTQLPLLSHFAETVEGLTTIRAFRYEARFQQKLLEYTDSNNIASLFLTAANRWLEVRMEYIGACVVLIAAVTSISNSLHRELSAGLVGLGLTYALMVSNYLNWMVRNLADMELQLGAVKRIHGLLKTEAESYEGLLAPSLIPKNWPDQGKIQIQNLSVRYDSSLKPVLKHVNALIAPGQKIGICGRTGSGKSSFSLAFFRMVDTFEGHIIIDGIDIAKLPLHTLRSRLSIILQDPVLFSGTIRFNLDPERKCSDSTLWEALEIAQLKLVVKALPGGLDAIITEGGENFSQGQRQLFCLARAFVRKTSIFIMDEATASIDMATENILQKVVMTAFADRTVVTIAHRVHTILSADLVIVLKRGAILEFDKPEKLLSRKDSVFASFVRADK
T2 sequence (Q14654 whole entry, stated change not applied): as the sequence (Q14654 whole entry) above
T2 sequence (Q09428 whole entry K205E partner): as the sequence (Q09428 whole entry partner) above, with K205E counted along it
T1 sequence (Q14654 whole entry, stated change not applied): as the sequence (Q14654 whole entry) above
T1 sequence (Q09428 whole entry K205A partner): as the sequence (Q09428 whole entry partner) above, with K205A counted along it

Nc1ncnc2c1ncn2[C@@H]1O[C@H](COP(=O)(O)OP(=O)(O)OP(=O)(O)O)[C@H]2OC3(O[C@H]21)C([N+](=O)[O-])=CC(=[N+]([O-])[O-])C=C3[N+](=O)[O-] (stereo partly drawn) [TNP-ATP, trinitrophenyl-ATP]
D (factor by which nucleotide binding favours channel closure) (Kir6.2*-GFP + SUR-K205A; [1]): 0.55 | L (unliganded open-closed equilibrium constant) (Kir6.2*-GFP + SUR-K205A; [1]): −0.37 log10 | Kd (Kir6.2*-GFP + SUR-K205A; [1]): 174 µM | C (binding cooperativity between Kir6.2 subunits) (Kir6.2*-GFP + SUR-K205A; Negative cooperativity model): 0.35 | D (factor by which nucleotide binding favours channel closure) (Kir6.2*-GFP + SUR-K205A; Negative cooperativity model): 0.52 | L (unliganded open-closed equilibrium constant) (Kir6.2*-GFP + SUR-K205A; Negative cooperativity model): −0.16 log10 | Kd (Kir6.2*-GFP + SUR-K205A; Negative cooperativity model): 79.4 µM | D (factor by which nucleotide binding favours channel closure) (Kir6.2*-GFP + SUR-K205A; [2]): 0.18 | L (unliganded open-closed equilibrium constant) (Kir6.2*-GFP + SUR-K205A; [2]): −0.25 log10 | Kd (Kir6.2*-GFP + SUR-K205A; [2]): 240 µM | D (factor by which nucleotide binding favours channel closure) (Kir6.2*-GFP + SUR-K205E; [1]): 0.62 | L (unliganded open-closed equilibrium constant) (Kir6.2*-GFP + SUR-K205E; [1]): −0.18 log10 | Kd (Kir6.2*-GFP + SUR-K205E; [1]): 398 µM | C (binding cooperativity between Kir6.2 subunits) (Kir6.2*-GFP + SUR-K205E; Negative cooperativity model): 0.45 | D (factor by which nucleotide binding favours channel closure) (Kir6.2*-GFP + SUR-K205E; Negative cooperativity model): 0.58 | Kd (Kir6.2*-GFP + SUR-K205E; Negative cooperativity model): 195 µM | D (factor by which nucleotide binding favours channel closure) (Kir6.2*-GFP + SUR-K205E; [2]): 0.30 | L (unliganded open-closed equilibrium constant) (Kir6.2*-GFP + SUR-K205E; [2]): −0.19 log10 | Kd (Kir6.2*-GFP + SUR-K205E; [2]): 490 µM | IC50 (Kir6.2-GFP + SUR1; IC50 current inhibition): 1.2 µM and 1.17 µM | h (Hill coefficient) current inhibition (Kir6.2-GFP + SUR1): 1.14
